{"source": "patent US20040019013A1", "about": "“Formulation for the parenteral application of a sodium channel blocker” (Boehringer Ingelheim Pharma GmbH & Co. KG, Ingelheim, …, priority 2002, published 2004)", "test": "Solubility experiments and 1H-NMR spectra: complexing with cyclodextrins", "type": "physicochemical", "conditions": "hydrochloride of BIII 890; γ-cyclodextrin, HPγCD, HPβCD and SBEβCD", "data": [{"smiles": "C[C@@H](CN1CC[C@@]2(C)c3cccc(O)c3C[C@@H]1C2(C)C)OCc1ccccc1", "note": "[BIII 890, (−)-(1R,2″S)-2-(2″-benzyloxy)propyl-4′-hydroxy-5,9,9-trimethyl-6,7-benzomorphan]", "values": [{"measurement": "complexing of the active substance by cyclodextrins", "value": "complex"}]}]}
